Assay results as given in paper PMC8509773, “3-Pyridinylidene Derivatives of Chemically Modified Lupane and Ursane Triterpenes as Promising Anticancer Agents by Targeting Apoptosis” (International Journal of Molecular Sciences, 2021).

Assays:
Format in all cases: cell-based, human
RPMI melanoma cells [1] = assay: Cell morphology assessment; details: 5 μM, 24 h
Procedure: In order to further investigate the biological effects of these compounds against three human melanoma cell lines, their effect on cell morphology was assessed.
In terms of the RPMI melanoma cell line (Figure 10), a decrease in the number of cells can be observed in direct proportion to the tested concentration; for both compounds, a proapoptotic change occurred in the cellular morphology.

RPMI melanoma cells [2] = assay: DAPI staining assay; details: 24 h
Procedure: (§1) For this purpose, the melanoma cell lines selected were A375, RPMI, and SK-MEL-28, given that these three lines have very good correlation coefficient scores with tumor cells originating from a wide range of malignant tumors, based on transcriptional similarity. This feature can also lead to increased clinical applicability potential for the tested substances. The two compounds were tested against three human melanoma cell lines: A375, RPMI, and SK-MEL-28 melanoma cell lines by applying 0.1, 1, and 5 μM solutions, respectively. 4′,6-Diamidino-2-phenylindole (DAPI) is a DNA-specific marker which allows the direct fluorescent blue staining of nuclei against a dark background, widely used in life sciences research. In effect, the DAPI stain binds to chromatin within the nuclei and provides their clear outline under the blue light (405 nm) while the cytoplasmic medium remains non-fluorescent. Moreover, due to its lack of interference with DNA–linker interactions, DAPI stain can provide fine details of nuclei’ shapes instead of merely highlighting their centers which contain the highest concentration of nucleic acids.
(§2) The DAPI assay was performed on three human melanoma cell lines: A375, RPMI, and SK-MEL-28. The cells were cultured in 24-well plates at 2x10^5 cells/well; compounds 6 and 7 in three different concentrations (0.1, 1, and 5 μM); and three DMSO concentrations (0.1, 1, and 5 μM) were used to stimulate cells. The immunofluorescent staining technique was performed according to a previously described protocol and adapted to our laboratory conditions. Thus, after 24 h of stimulation, the cells were fixed with 4% paraformaldehyde and incubated at room temperature for 1 h. Cell permeability was 30 min later performed with 2% Triton X solution in phosphate-buffered saline (PBS). The 300 nM 4’,6-diamidino-2-phenylindole (DAPI) staining was used to visualize cell nuclei under the fluorescence microscope at 40x magnification using CellSens V1.15 software (Olympus, Tokyo, Japan) and Image J software.

A375 melanoma cells = assay: DAPI staining assay; details: 24 h
Procedure: as §1, §2

SK-MEL-28 melanoma cells = assay: DAPI staining assay; details: 24 h
Procedure: as §1, §2

Structure (SMILES)	Effect on cell morphology (RPMI melanoma cells [1])	Nuclear changes, DAPI staining (RPMI melanoma cells [2]; 0.1 μM)	Nuclear changes, DAPI staining (RPMI melanoma cells [2]; 5 μM)	Nuclear changes, DAPI staining (A375 melanoma cells; A375, 0.1 μM)	Nuclear changes, DAPI staining (A375 melanoma cells; A375, 1 μM)	Nuclear changes, DAPI staining (A375 melanoma cells; A375, 5 μM)	Nuclear changes, DAPI staining (SK-MEL-28 melanoma cells; SK-Mel-28, 0.1 μM)	Nuclear changes, DAPI staining (SK-MEL-28 melanoma cells; SK-Mel-28, 5 μM)	Nuclear changes, DAPI staining (RPMI melanoma cells [2]; 1 μM)	Nuclear changes, DAPI staining (SK-MEL-28 melanoma cells; SK-Mel-28, 1 μM)
C[C@H]1[C@@H]2[C@H]3CC[C@@H]4[C@@]5(C)C/C(=C\c6cccnc6)C(=O)C(C)(C)[C@@H]5CC[C@@]4(C)[C@]3(C)CC[C@]23CO[C@@]1(C)[C@@H](C(=O)/C=C/c1cccnc1)C3 [Compound 6, 3-Oxo-2-(3-pyridinylidene)-21-[3-(2E-pyridinyl)-prop-2-en-1-one]-20β,28-epoxy-18α,19βH-ursane]	formation of vacuoles within the cell cytoplasm	massive nucleus condensation and fragmentation	occurrence of nuclear residues	nuclear fragmentation	nuclear fragmentation	chromatin becomes condensed	massive nucleus condensation and fragmentation	occurrence of nuclear residues		
COC(=O)[C@]12CC[C@@H](C(=O)/C=C/c3cccnc3)[C@@H]1[C@H]1CC[C@@H]3[C@@]4(C)C/C(=C\c5cccnc5)C(=O)C(C)(C)[C@@H]4CC[C@@]3(C)[C@]1(C)CC2 [Compound 7, methyl 2,30-bis-(3-pyridinylidene)-3,20-dioxo-lup-28-oate]		slight nucleus fragmentation	nuclear fragmentation and chromatin condensation	nucleus fragmentation	condensation of chromatin	condensation of chromatin	slight nucleus fragmentation	nuclear fragmentation and chromatin condensation	nuclear fragmentation and chromatin condensation	nuclear fragmentation and chromatin condensation
